Data: patent US20090325959A1 (priority 2008, published 2009)

Assays:
[1] = test system: ova-sensitized, ova-challenged mice; assay: Prevention of airway hyperreactivity (Penh, methacholine) in mouse ovalbumin sensitization model; format: in vivo
LPS-challenged mice = assay: LPS-induced neutrophilia and cytokine production assay; format: in vivo, mouse; details: intratracheal administration; FIG. 11B
Procedure: Male BALB/c mice, approximately 19 to 21 grams, were ordered from Charles River Laboratories (Raleigh, N.C.). All animals were challenged with aerosolized LPS (10 μg/ml) for 25 minutes on study day 0. LPS aerosol was generated using an Aerogen Aeroneb nebulizer and controller providing a flow of 400 μl/min and a particle size of 2-4 μm MMAD. Rolipram was administered i.p at 20 mg/kg. […] Four hours following LPS challenge, BALF was collected using a total of 3 ml of 0.9% sodium chloride containing 10% fetal calf serum. Total cell counts were determined using the Coulter Counter. For differential evaluations, BALF was centrifuged and cytospin slides prepared and stained with Hema3 stain. Manual leukocyte counts were then completed on 200 cells. The final concentration of individual leukocyte cell types per ml of BALF was determined by multiplication of the relative percentage of individual leukocytes with the total amount of cells/ml of BALF fluid. The concentration of IL-1β in the BALF samples was determined using commercially available Bio-plex kits (Bio-Rad). The analysis of cytokine levels was measured using the Bio-Plex 200 (Bio-Rad) system according to the manufacturer's instructions.

IRAK4 = biological target: T1, IRAK4 (Homo sapiens, UniProt Q9NWZ3); assay: Kinase panel screen (KinaseProfiler), IRAK4; format: biochemical; details: 10 μM ATP
T1 construct: purchased Upstate, Millipore Bioscience Division (KinaseProfiler service)
T1 sequence (Q9NWZ3 1-460): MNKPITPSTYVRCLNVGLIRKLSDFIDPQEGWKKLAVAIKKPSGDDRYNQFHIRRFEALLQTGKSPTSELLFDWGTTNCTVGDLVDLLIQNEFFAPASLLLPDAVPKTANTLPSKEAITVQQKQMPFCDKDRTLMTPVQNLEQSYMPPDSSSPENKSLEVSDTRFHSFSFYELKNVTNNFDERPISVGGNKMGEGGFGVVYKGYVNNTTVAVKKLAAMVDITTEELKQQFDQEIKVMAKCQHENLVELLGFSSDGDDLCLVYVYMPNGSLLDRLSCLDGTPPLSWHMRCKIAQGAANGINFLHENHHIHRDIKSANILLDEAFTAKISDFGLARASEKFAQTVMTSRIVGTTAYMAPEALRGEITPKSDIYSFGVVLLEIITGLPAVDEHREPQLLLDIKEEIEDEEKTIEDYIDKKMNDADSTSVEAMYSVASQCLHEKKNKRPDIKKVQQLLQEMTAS
Procedure: Compounds of Formulae I and II were examined for activity against a selected panel of kinases using the KinaseProfiler™ enzyme profiling services (Upstate, Millipore Bioscience Division). Percent kinase activity at 10 μM and 1 μM test compound and 10 μM ATP was determined against 40 wild-type recombinant human kinases according to Upstate's standard protocol: ASK1, BTK, CSK, c-RAF, GCK, GSK3β, IKKα, IKKβ, IRAK1, IRAK4, JNK1α1, JNK2α2, JNK3, ERK1, ERK2, MAPKAP-K2, MAPKAP-K3, MEK1, MKK4, MKK6, MKK7β, Mnk2, MSK1, PAK3, PDK1, PRAK, ROCK1, Rsk2, SAPK2a, SAPK2b, SAPK3, SAPK4, SRPK1, SRPK2, Syk, TAK1, TBK1, PI3-Kβ, PI3-Kγ, PI3-Kδ.

Question: `NC(=O)Cn1ccc2cc(CN3CC[C@@H](Nc4cccc5cnccc45)C3)ccc21` [Compound 2.059, (R)-2-(5-((3-(isoquinolin-5-ylamino)pyrrolidin-1-yl)methyl)-1H-indol-1-yl)acetamide] was tested. Which “log10AUC (Penh)” value ([1]; 0.5 μmol/kg/intratracheal, days 27 to 31) did it give?
Answer: 1.9979

Question: What about the airway hyperreactivity ([1]; intratracheal once a day during days 27 to 31) of the same compound?
Answer: prevention of airway hyperreactivity

Question: What about the “IL-1β levels in BALF from LPS-challenged mice” value (LPS-challenged mice) of the same compound?
Answer: reduction

Question: And the activity at 1 µM (IRAK4; 1 μM test compound, read-out: IRAK4 Percent inhibition, 1 μM)?
Answer: 63%

Question: And the activity at 10 µM (IRAK4; 10 μM test compound, read-out: IRAK4 Percent inhibition, 10 μM)?
Answer: 22%
